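Exposure lasted 48 hours, with cells grown in 96-well plates and compounds tested at five concentrations. The concentration for 50% growth inhibition is given as GI50.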 Activity calls are given as the source filed them. No stated cut-off is given here; in the data, active = GI50 up to about 1.1 µM and inactive = higher.
Experiments:
Assay in all cases: growth of human tumour cells (NCI), 48 h
SNB-19 = test system: SNB-19
SF-268 = test system: SF-268
UACC-257 = test system: UACC-257
OVCAR-4 = test system: OVCAR-4
SF-539 = test system: SF-539
SK-MEL-5 = test system: SK-MEL-5
LOX IMVI = test system: LOX IMVI
MDA-MB-231 = test system: MDA-MB-231
SW-620 = test system: SW-620
MDA-MB-435 = test system: MDA-MB-435
SK-OV-3 = test system: SK-OV-3
RXF 393 = test system: RXF 393
HCT-116 = test system: HCT-116
A498 = test system: A498
COLO 205 = test system: COLO 205
SK-MEL-2 = test system: SK-MEL-2
SK-MEL-28 = test system: SK-MEL-28
CCRF-CEM = test system: CCRF-CEM
A549 = test system: A549
EKVX = test system: EKVX
SN12C = test system: SN12C
TK-10 = test system: TK-10
NCI/ADR-RES = test system: NCI/ADR-RES
T47D = test system: T47D
M14 = test system: M14
MCF7 = test system: MCF7
DU-145 = test system: DU-145
SR = test system: SR
BT-549 = test system: BT-549
HCT-15 = test system: HCT-15
NCI-H460 = test system: NCI-H460
HT-29 = test system: HT-29
HOP-62 = test system: HOP-62
IGROV-1 = test system: IGROV-1
NCI-H23 = test system: NCI-H23
PC-3 = test system: PC-3
HOP-92 = test system: HOP-92
MOLT-4 = test system: MOLT-4
Malme-3M = test system: Malme-3M
Hs-578T = test system: Hs-578T
SF-295 = test system: SF-295
RPMI-8226 = test system: RPMI-8226
K562 = test system: K562
U-251 = test system: U-251
UACC-62 = test system: UACC-62
NCI-H226 = test system: NCI-H226
ACHN = test system: ACHN
OVCAR-5 = test system: OVCAR-5
CAKI-1 = test system: CAKI-1
UO-31 = test system: UO-31
OVCAR-3 = test system: OVCAR-3
OVCAR-8 = test system: OVCAR-8
HL-60 = test system: HL-60
KM12 = test system: KM12
786-0 = test system: 786-0
HCC 2998 = test system: HCC 2998
NCI-H522 = test system: NCI-H522
SNB-75 = test system: SNB-75

## COC(=O)c1c(O)ccc2c1c1c(n2Cc2cccc(C)c2)C(=O)c2ccccc2C1
SNB-19
  GI50: > 75 µM (inactive)
SF-268
  GI50: 28 µM (inactive)
UACC-257
  GI50: 46.1 µM (inactive)
OVCAR-4
  GI50: 0.126 µM (active)
SF-539
  GI50: 17.1 µM (inactive)
SK-MEL-5
  GI50: 29.2 µM (inactive)
LOX IMVI
  GI50: 19.8 µM (inactive)
MDA-MB-231
  GI50: 13.6 µM (inactive)
SW-620
  GI50: 26.2 µM (inactive)
MDA-MB-435
  GI50: 11.4 µM (inactive)
SK-OV-3
  GI50: > 75 µM (inactive)
RXF 393
  GI50: 11.9 µM (inactive)
HCT-116
  GI50: 7.85 µM (inactive)
A498
  GI50: 40.8 µM (inactive)
COLO 205
  GI50: 12.1 µM (inactive)
SK-MEL-2
  GI50: 45 µM (inactive)
SK-MEL-28
  GI50: 0.295 µM (active)
CCRF-CEM
  GI50: 12.4 µM (inactive)
A549
  GI50: 25.2 µM (inactive)
EKVX
  GI50: 0.0931 µM (active)
SN12C
  GI50: 12.9 µM (inactive)
TK-10
  GI50: 22 µM (inactive)
NCI/ADR-RES
  GI50: 15.5 µM (inactive)
T47D
  GI50: 0.348 µM (active)
M14
  GI50: 14.5 µM (inactive)
MCF7
  GI50: 27.9 µM (inactive)
DU-145
  GI50: 51.4 µM (inactive)
SR
  GI50: 13.7 µM (inactive)
BT-549
  GI50: 26.5 µM (inactive)
HCT-15
  GI50: 19.7 µM
NCI-H460
  GI50: 19.4 µM (inactive)
HT-29
  GI50: 10.3 µM (inactive)
HOP-62
  GI50: 10.4 µM (inactive)
IGROV-1
  GI50: 42.7 µM (inactive)
NCI-H23
  GI50: 23.7 µM (inactive)
PC-3
  GI50: 9.1 µM (inactive)
HOP-92
  GI50: 42.6 µM (inactive)
MOLT-4
  GI50: 17.1 µM (inactive)
Malme-3M
  GI50: 13.5 µM (inactive)
Hs-578T
  GI50: 23.2 µM (inactive)
SF-295
  GI50: 24.9 µM (inactive)
RPMI-8226
  GI50: 12 µM (inactive)
K562
  GI50: 29.4 µM (inactive)
U-251
  GI50: 14.5 µM (inactive)
UACC-62
  GI50: 32.6 µM (inactive)
NCI-H226
  GI50: 19.7 µM (inactive)
ACHN
  GI50: 21.1 µM (inactive)
OVCAR-5
  GI50: 22 µM (inactive)
CAKI-1
  GI50: 8.75 µM (inactive)
UO-31
  GI50: > 75 µM (inactive)
OVCAR-3
  GI50: 12.6 µM (inactive)
OVCAR-8
  GI50: 26.2 µM (inactive)
HL-60
  GI50: > 75 µM (inactive)

## CN(C)CCn1c2c(c3ccccc31)CCc1ccccc1-2
SNB-19
  GI50: 16.3 µM (inactive)
SF-268
  GI50: 17.9 µM (inactive)
UACC-257
  GI50: 14.6 µM (inactive)
OVCAR-4
  GI50: 14.3 µM (inactive)
SF-539
  GI50: 13.4 µM (inactive)
SK-MEL-5
  GI50: 6.1 µM (inactive)
LOX IMVI
  GI50: 17 µM (inactive)
MDA-MB-231
  GI50: 13.9 µM (inactive)
SW-620
  GI50: 18.8 µM (inactive)
MDA-MB-435
  GI50: 17.4 µM (inactive)
SK-OV-3
  GI50: 18.7 µM (inactive)
HCT-116
  GI50: 12 µM (inactive)
COLO 205
  GI50: 11.3 µM (inactive)
SK-MEL-2
  GI50: 15.3 µM (inactive)
SK-MEL-28
  GI50: 15.8 µM (inactive)
CCRF-CEM
  GI50: 18.7 µM (inactive)
A549
  GI50: 15 µM (inactive)
EKVX
  GI50: 17.4 µM (inactive)
SN12C
  GI50: 13.8 µM (inactive)
TK-10
  GI50: 16.7 µM (inactive)
NCI/ADR-RES
  GI50: 15.6 µM (inactive)
T47D
  GI50: 15.8 µM (inactive)
M14
  GI50: 13.5 µM (inactive)
MCF7
  GI50: 16.8 µM (inactive)
DU-145
  GI50: 16.1 µM (inactive)
KM12
  GI50: 13.4 µM (inactive)
SR
  GI50: 10.8 µM (inactive)
BT-549
  GI50: 14.5 µM (inactive)
HCT-15
  GI50: 10.7 µM
NCI-H460
  GI50: 14.4 µM (inactive)
HT-29
  GI50: 8.99 µM (inactive)
HOP-62
  GI50: 15.7 µM (inactive)
IGROV-1
  GI50: 10 µM (inactive)
NCI-H23
  GI50: 17.4 µM (inactive)
PC-3
  GI50: 11.4 µM (inactive)
HOP-92
  GI50: 14 µM (inactive)
MOLT-4
  GI50: 10.8 µM (inactive)
786-0
  GI50: 14.8 µM (inactive)
Malme-3M
  GI50: 16.1 µM (inactive)
Hs-578T
  GI50: 15.1 µM (inactive)
SF-295
  GI50: 16.9 µM (inactive)
RPMI-8226
  GI50: 6.49 µM (inactive)
U-251
  GI50: 13.6 µM (inactive)
UACC-62
  GI50: 13 µM (inactive)
NCI-H226
  GI50: 12.8 µM (inactive)
ACHN
  GI50: 16.3 µM (inactive)
HCC 2998
  GI50: 0.569 µM (active)
OVCAR-5
  GI50: 17.9 µM (inactive)
CAKI-1
  GI50: 14.9 µM (inactive)
NCI-H522
  GI50: 15.9 µM (inactive)
UO-31
  GI50: 13.6 µM (inactive)
OVCAR-3
  GI50: 14.6 µM (inactive)
OVCAR-8
  GI50: 16 µM (inactive)

## COc1cc2nc(-c3cccs3)nc(Nc3cccc(Cl)c3)c2cc1OC
SNB-19
  GI50: 35.2 µM (inactive)
SF-268
  GI50: 31.3 µM (inactive)
UACC-257
  GI50: > 100 µM (inactive)
OVCAR-4
  GI50: 28.8 µM (inactive)
SF-539
  GI50: 37.2 µM (inactive)
SK-MEL-5
  GI50: > 100 µM (inactive)
LOX IMVI
  GI50: 42.6 µM (inactive)
MDA-MB-231
  GI50: > 100 µM (inactive)
SW-620
  GI50: > 100 µM (inactive)
MDA-MB-435
  GI50: 61.9 µM (inactive)
SK-OV-3
  GI50: 48.1 µM (inactive)
HCT-116
  GI50: > 100 µM (inactive)
A498
  GI50: > 100 µM (inactive)
COLO 205
  GI50: > 100 µM (inactive)
SNB-75
  GI50: 36.3 µM (inactive)
SK-MEL-2
  GI50: > 100 µM (inactive)
SK-MEL-28
  GI50: 81.8 µM (inactive)
CCRF-CEM
  GI50: 34 µM (inactive)
A549
  GI50: 50.9 µM (inactive)
EKVX
  GI50: 88.9 µM (inactive)
SN12C
  GI50: > 100 µM (inactive)
TK-10
  GI50: 2.3 µM (inactive)
NCI/ADR-RES
  GI50: 48.2 µM (inactive)
T47D
  GI50: 44.6 µM (inactive)
M14
  GI50: 78.3 µM (inactive)
MCF7
  GI50: 53.6 µM (inactive)
DU-145
  GI50: 90.6 µM (inactive)
KM12
  GI50: 43.2 µM (inactive)
SR
  GI50: 91.6 µM (inactive)
BT-549
  GI50: 59.2 µM (inactive)
HCT-15
  GI50: 88.9 µM
NCI-H460
  GI50: 42.8 µM (inactive)
HT-29
  GI50: > 100 µM (inactive)
HOP-62
  GI50: 20.3 µM (inactive)
IGROV-1
  GI50: 61.1 µM (inactive)
NCI-H23
  GI50: 54.6 µM (inactive)
PC-3
  GI50: 21.1 µM (inactive)
HOP-92
  GI50: 55 µM (inactive)
MOLT-4
  GI50: 61.8 µM (inactive)
786-0
  GI50: 53.2 µM (inactive)
Malme-3M
  GI50: 27.7 µM (inactive)
Hs-578T
  GI50: 31.6 µM (inactive)
SF-295
  GI50: 22.5 µM (inactive)
RPMI-8226
  GI50: 51.9 µM (inactive)
K562
  GI50: > 100 µM (inactive)
U-251
  GI50: 35.9 µM (inactive)
UACC-62
  GI50: > 100 µM (inactive)
NCI-H226
  GI50: 50.6 µM (inactive)
ACHN
  GI50: 78.5 µM (inactive)
OVCAR-5
  GI50: > 100 µM (inactive)
CAKI-1
  GI50: > 100 µM (inactive)
NCI-H522
  GI50: 64.6 µM (inactive)
UO-31
  GI50: > 100 µM (inactive)
OVCAR-3
  GI50: 52.8 µM (inactive)
OVCAR-8
  GI50: 37.8 µM (inactive)
HL-60
  GI50: > 100 µM (inactive)

— ChEMBL document CHEMBL1201862, “PubChem BioAssay data set” (2004)
